pIC50: −log10 of the molar value. Bounds are passed on as bounds.

This is an account of results in publication PMC8750650 (bioRxiv, 2022).

For one series, the target named is CSNK2A1 (Homo sapiens, UniProt P68400). The experiment in a line: cell-based. In kind it is cell-based.
The target of a further series is CSNK2A2 (Homo sapiens, UniProt P19784). In words: cell-based.
Another series concerns MHV-nLuc. In words: microbe, parasite or virus in culture. In kind it is cell-based, mouse hepatitis virus (MHV). The settings on record: Murine coronavirus, 10 h, read-out: MHV replication (pIC50) (converted).
Series [1] deals with SARS-CoV-2 spike protein uptake. In kind it is cell-based, human.
For another series, the system named is DBT cells. The settings on record: LDH assay, 10 h, concentrations up to 10 μM.
Series [2] concerns SARS-CoV-2. The settings on record: African green monkey kidney epithelial Vero cells infected with SARS-CoV-2; ref [18]; cited from earlier work.
The subject of series [3] is SARS-CoV-2. The settings on record: human lung epithelial A549-ACE2 cells; ref [18]; cited from earlier work.
In a further series the test system is Vero cells. The settings on record: ref [18]; cited from earlier work.
The next series concerns A549-ACE2 cells. The settings on record: ref [18]; cited from earlier work.

Chain of CSNK2A2 (P19784 whole entry): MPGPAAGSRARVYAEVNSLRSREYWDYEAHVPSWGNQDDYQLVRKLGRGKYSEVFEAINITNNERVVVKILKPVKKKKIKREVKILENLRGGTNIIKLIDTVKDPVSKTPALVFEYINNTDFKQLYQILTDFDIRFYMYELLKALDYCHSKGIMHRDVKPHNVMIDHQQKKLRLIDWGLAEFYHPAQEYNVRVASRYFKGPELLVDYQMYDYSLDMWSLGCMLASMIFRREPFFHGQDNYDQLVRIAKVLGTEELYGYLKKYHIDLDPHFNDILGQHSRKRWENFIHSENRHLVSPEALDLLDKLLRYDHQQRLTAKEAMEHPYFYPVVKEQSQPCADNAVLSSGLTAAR
Chain of CSNK2A1 (P68400 whole entry): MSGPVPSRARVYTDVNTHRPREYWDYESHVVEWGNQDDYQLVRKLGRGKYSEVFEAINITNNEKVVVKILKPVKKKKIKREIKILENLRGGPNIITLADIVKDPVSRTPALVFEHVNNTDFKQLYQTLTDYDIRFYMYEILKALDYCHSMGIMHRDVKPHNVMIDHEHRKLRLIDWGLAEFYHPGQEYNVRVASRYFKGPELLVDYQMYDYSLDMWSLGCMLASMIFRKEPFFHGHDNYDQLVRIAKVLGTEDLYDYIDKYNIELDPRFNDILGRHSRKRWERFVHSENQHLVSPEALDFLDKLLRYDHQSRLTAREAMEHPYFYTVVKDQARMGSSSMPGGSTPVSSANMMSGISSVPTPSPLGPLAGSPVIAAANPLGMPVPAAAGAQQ

On to `CCC(=O)Nc1cc(Nc2cc(NC3CC3)n3ncc(C#N)c3n2)ccc1N(C)CCN` [Compound 9], for which the negative-log IC50 (pIC50) on CSNK2A1 was 8.40.

Regarding `CCC(=O)Nc1cc(Nc2cc(NC3CC3)n3ncc(C#N)c3n2)ccc1N(C)CCN1CCCC1` [Compound 11], the pIC50 against CSNK2A1 and against CSNK2A2 was 7.00 each time.

On CSNK2A1, `CCC(=O)Nc1cc(Nc2cc(NC3CC3)n3ncc(C#N)c3n2)ccc1N(C)CCN1CCCCC1` [Compound 12] showed a negative-log IC50 (pIC50) of 6.60.

The molecule `CCC(=O)Nc1cc(Nc2cc(NC3CC3)n3ncc(C#N)c3n2)ccc1N1CCNCC1` [Compound 14] showed a negative logarithm of the IC50 (pIC50) at CSNK2A1 of 6.80.

For `CCC(=O)Nc1cc(Nc2cc(NC3CC3)n3ncc(C#N)c3n2)ccc1N1CCCC(NC)C1` (stereo not drawn) [Compound 15], the results for the negative-log IC50 (pIC50) against CSNK2A1 and on CSNK2A2 were 8.70 and 7.80, respectively. Besides, the “selectivity for CSNK2A1 over CSNK2A2” value on CSNK2A1 (from nanoBRET values) is on record as 6–8 fold.

Consider `CC(=O)Nc1ccc2ccn(-c3cc(NC4CC(F)(F)C4)n4ncc(C#N)c4n3)c2c1` [Compound 18], for which the pIC50 on CSNK2A1 was 7.40; against CSNK2A2, 7.00.

For `CC(=O)Nc1ccc2ccn(-c3cc(NC45CC(C4)C5)n4ncc(C#N)c4n3)c2c1` [Compound 19], the pIC50 at CSNK2A1 was 6.80; at CSNK2A2, 7.10.

Regarding `CC(=O)Nc1ccc2ccn(-c3cc(NC4(C)CC4)n4ncc(C#N)c4n3)c2c1` [Compound 20], the pIC50 against CSNK2A1 was 6.30; on CSNK2A2 it was 5.80.

With `CC(=O)Nc1ccc2ccn(-c3cc(NCC4CCOC4)n4ncc(C#N)c4n3)c2c1` (stereo not drawn) [Compound 25], the pIC50 on CSNK2A1 was 7.50; at CSNK2A2, 6.60.

As for `CC(=O)Nc1ccc2ccn(-c3cc(NCC4CCOCC4)n4ncc(C#N)c4n3)c2c1` [Compound 26], the pIC50 against CSNK2A1 is 7.00; at CSNK2A2, 5.70.

Take `CC(=O)Nc1ccc2ccn(-c3cc(NC4CCN(C(C)=O)CC4)n4ncc(C#N)c4n3)c2c1` [Compound 28]: the pIC50 against CSNK2A1 was 7.20; against CSNK2A2, 6.40.

`CC(=O)Nc1ccc2ccn(-c3cc(NCc4cnn(C)c4)n4ncc(C#N)c4n3)c2c1` [Compound 29]: the pIC50 on CSNK2A1 was 6.80; at CSNK2A2 it was 6.70.

For `CC(=O)Nc1ccc2ccn(-c3cc(N[C@H](C)C#N)n4ncc(C#N)c4n3)c2c1` [Compound 30], the figures for the pIC50 against CSNK2A1 and on CSNK2A2 were 6.90 and 7.10, respectively.

Consider `CC(=O)Nc1ccc2ccn(-c3cc(Sc4ccccc4)n4ncc(C#N)c4n3)c2c1` [Compound 33], for which the pIC50 against CSNK2A1 and against CSNK2A2 was 5.20 in each case.

As to `CCC(=O)Nc1cc(Nc2cc(NC3CC3)n3ncc(C#N)c3n2)ccc1C` [SGC-CK2–1], the IC50 with MHV-nLuc is 126 nM. For the same molecule, the “decrease in spike protein uptake” value in series [1] was 70–80%.

As to `O=C(O)c1ccc2c(c1)nc(Nc1cccc(Cl)c1)c1ccncc12` [silmitasertib], in the series with DBT cells, the “effect on cell viability” value is recorded as “no effect on cell viability”. In addition, in the series on SARS-CoV-2 [2], the “antiviral activity, SARS-CoV-2 (pIC50)” value was 5.6. Further, in the series with SARS-CoV-2 [3], the “inhibition of SARS-CoV-2 infection (pIC50)” value was below 5. The cell toxicity entry with Vero cells and in the series on A549-ACE2 cells was “cell toxicity at micromolar doses” each time.

Broadly, the pIC50 is the negative decadic logarithm of the IC50, by convention in mol/L.
